Legend:
MPSK1 = MPSK1 (Homo sapiens, UniProt O75716); test: Kinobeads competition binding, HL60 cell lysate; set-up: endogenous in cells; host or cells: HL60; settings: 10 μM free compound
Description: (§1) To one aliquot of cell lysate 10 μM of the free compound (FIG. 3, CZC31326) was added and allowed to bind to proteins in the lysate. Then the affinity matrix with the immobilized compound (Example 1) was added to capture proteins that were not interacting with the previously added free compound. Beads were separated from the lysate and bead bound proteins were eluted in SDS sample buffer and subsequently separated by SDS-Polyacrylamide gel electrophoresis (FIG. 4). Suitable gel bands were cut out and subjected to in-gel proteolytic digestion with trypsin. The second lysate aliquot was processed identically, however no free compound was added (DMSO solvent control). Peptides originating from samples 1 and 2 were labeled with iTRAQ reagents (iTRAQ 114 and iTRAQ 117) and the combined samples were analyzed with a nano-flow liquid chromatography system coupled online to a tandem mass spectrometer (LC-MS/MS) experiment followed by iTRAQ reporter ion quantification in the MS/MS spectra (Ross et al., 2004. Mol. Cell. Proteomics 3(12):1154-1169). Further experimental protocols can be found in WO2006/134056 and a previous publication (Bantscheff et al., 2007. Nature Biotechnology 25, 1035-1044). Sepharose-beads with the immobilized compound (100 μl beads per pull-down experiment) were equilibrated in lysis buffer and incubated with a cell lysate sample containing 50 mg of protein on an end-over-end shaker (Roto Shake Genie, Scientific Industries Inc.) for 2 hours at 4° C. Beads were collected, transferred to Mobicol-columns (MoBiTech 10055) and washed with 10 ml lysis buffer containing 0.4% NP40 detergent, followed by 5 ml lysis buffer containing 0.2% detergent. To elute bound proteins, 60 μl 2×SDS sample buffer was added to the column. The column was incubated for 30 minutes at 50° C. and the eluate was transferred to a siliconized microfuge tube by centrifugation. Proteins were then alkylated with 108 mM iodoacetamid. Proteins were then separated by SDS-Polyacrylamide electrophoresis (SDS-PAGE). The peptide extracts of samples treated with 10 μM of free compound (CZC31326) and the solvent control (0.5% DMSO) were treated with different variants of the isobaric tagging reagent (iTRAQ Reagents Multiplex Kit, part number 4352135, Applied Biosystems, Foster City, Calif., USA). The iTRAQ reagents are a set of multiplexed, amine-specific, stable isotope reagents that can label peptides on amino groups in up to four different biological samples enabling simultaneous identification and quantitation of peptides. The iTRAQ reagents were used according to instructions provided by the manufacturer. The samples were resuspended in 10 μl 50 mM TEAB solution, pH 8.5 and 10 μl ethanol were added. The iTRAQ reagent was dissolved in 120 μl ethanol and 10 μl of reagent solution were added to the sample. The labeling reaction was performed at room temperature for one hour on a horizontal shaker and stopped by adding 5 μl of 100 mM TEAB and 100 mM glycine in water. The two labeled sampled were then combined, dried in a vacuum centrifuge and resuspended in 10 μl of 0.1% formic acid in water. Relative protein quantitation was performed using peak areas of iTRAQ reporter ion signals essentially as described in an earlier publication (Bantscheff et al., 2007. Nature Biotechnology 25, 1035-1044).

MSK2 = MSK2 (Homo sapiens, UniProt O75676); test: Kinobeads competition binding, HL60 cell lysate; set-up: endogenous in cells; host or cells: HL60; settings: 10 μM free compound
Sequence of MSK2 (O75676 whole entry): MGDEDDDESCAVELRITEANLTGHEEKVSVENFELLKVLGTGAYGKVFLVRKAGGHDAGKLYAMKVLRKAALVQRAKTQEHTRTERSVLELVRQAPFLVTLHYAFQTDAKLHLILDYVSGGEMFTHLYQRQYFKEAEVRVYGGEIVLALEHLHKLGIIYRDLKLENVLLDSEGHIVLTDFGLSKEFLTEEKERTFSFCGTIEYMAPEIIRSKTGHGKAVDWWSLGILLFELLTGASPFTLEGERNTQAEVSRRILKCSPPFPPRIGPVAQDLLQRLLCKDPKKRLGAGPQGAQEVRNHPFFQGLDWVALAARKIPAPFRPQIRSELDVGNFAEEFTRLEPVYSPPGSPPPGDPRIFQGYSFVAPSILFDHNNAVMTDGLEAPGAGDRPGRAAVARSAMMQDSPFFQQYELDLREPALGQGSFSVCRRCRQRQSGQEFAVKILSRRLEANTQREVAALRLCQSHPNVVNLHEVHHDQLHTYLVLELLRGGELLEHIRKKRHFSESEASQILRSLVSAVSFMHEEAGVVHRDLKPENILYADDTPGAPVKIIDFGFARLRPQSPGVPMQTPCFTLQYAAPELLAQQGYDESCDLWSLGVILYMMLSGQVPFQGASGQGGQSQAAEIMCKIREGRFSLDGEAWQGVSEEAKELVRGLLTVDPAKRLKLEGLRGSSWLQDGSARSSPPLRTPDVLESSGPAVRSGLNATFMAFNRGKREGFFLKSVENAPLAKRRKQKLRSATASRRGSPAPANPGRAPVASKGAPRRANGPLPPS
Description: as §1

PIP5K2C = biological target: T1, PIP5K2C (Homo sapiens, UniProt Q8TBX8); test: Kinobeads competition binding, HL60 cell lysate; set-up: endogenous in cells; host or cells: HL60; settings: 10 μM free compound
T1 sequence (Q8TBX8 1-421): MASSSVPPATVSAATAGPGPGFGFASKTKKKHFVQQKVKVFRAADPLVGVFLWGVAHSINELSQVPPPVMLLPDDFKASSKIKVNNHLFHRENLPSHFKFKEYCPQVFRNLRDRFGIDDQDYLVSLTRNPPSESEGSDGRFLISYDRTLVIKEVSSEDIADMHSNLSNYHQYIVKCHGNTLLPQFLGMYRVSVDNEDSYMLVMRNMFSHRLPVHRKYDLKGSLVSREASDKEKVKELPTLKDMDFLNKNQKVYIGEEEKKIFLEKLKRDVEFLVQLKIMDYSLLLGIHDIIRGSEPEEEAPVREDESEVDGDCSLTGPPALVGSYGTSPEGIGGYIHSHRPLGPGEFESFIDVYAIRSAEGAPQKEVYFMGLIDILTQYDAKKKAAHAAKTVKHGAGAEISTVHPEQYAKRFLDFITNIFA
Description: as §1

PIP5K2A = biological target: T2, PIP5K2A (Homo sapiens, UniProt P48426); test: Kinobeads competition binding, L-363 cell lysate; set-up: endogenous in cells; host or cells: L-363 (treated with MG132 for three hours before harvest); settings: 10 μM free compound, L-363 lysate
T2 sequence (P48426 1-406): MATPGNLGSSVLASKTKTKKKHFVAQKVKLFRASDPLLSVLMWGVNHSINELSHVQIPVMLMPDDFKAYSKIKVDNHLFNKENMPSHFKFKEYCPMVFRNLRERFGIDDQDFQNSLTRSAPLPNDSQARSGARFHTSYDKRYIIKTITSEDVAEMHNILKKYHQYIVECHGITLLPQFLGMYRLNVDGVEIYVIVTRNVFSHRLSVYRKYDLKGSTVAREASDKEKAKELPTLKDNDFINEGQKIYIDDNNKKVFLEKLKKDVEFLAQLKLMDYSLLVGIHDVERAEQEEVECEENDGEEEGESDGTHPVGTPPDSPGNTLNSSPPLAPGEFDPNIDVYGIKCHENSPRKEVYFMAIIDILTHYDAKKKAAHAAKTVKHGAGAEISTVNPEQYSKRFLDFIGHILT
Description: To one aliquot of cell lysate 10 μM of the free compound (FIG. 3, CZC31326) was added and allowed to bind to proteins in the lysate. Then the affinity matrix with the immobilized compound was added to capture proteins that were not interacting with the previously added free compound. Beads were separated from the lysate and bead bound proteins were eluted in SDS sample buffer and subsequently separated by SDS-Polyacrylamide gel electrophoresis (FIG. 8). Suitable gel bands were cut out and subjected to in-gel proteolytic digestion with trypsin. The second lysate aliquot was processed identically, however no free compound was added (DMSO solvent control). Peptides originating from samples 1 and 2 were labeled with iTRAQ reagents (iTRAQ 114 and iTRAQ 117) and the combined samples were analyzed with a nano-flow liquid chromatography system coupled online to a tandem mass spectrometer (LC-MS/MS) experiment followed by iTRAQ reporter ion quantification in the MS/MS spectra as described in Example 2.
For this experiment the human plasma cell leukaemia line L-363 was used (German Collection of Microorganisms and Cell Cultures, DSMZ number ACC49, Braunschweig, Germany). Cells were treated for three hours with 20 μM of the proteasome inhibitor MG132 (Z-Leu-Leu-Leu-al, Sigma C2211) prior to cell harvesting.

Sequence of MPSK1 (O75716 whole entry): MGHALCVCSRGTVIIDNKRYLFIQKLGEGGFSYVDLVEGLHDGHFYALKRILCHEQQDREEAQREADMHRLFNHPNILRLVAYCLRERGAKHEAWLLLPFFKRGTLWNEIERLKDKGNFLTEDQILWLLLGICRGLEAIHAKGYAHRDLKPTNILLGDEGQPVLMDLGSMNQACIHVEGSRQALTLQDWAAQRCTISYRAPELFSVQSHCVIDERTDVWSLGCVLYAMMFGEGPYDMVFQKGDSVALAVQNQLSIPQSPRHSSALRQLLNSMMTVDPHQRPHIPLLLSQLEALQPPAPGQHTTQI

inhibition at 10 µM (MPSK1): 93.4% | inhibition at 10 µM (MSK2): 96.8% | inhibition at 10 µM (PIP5K2C): 98.3% | inhibition at 10 µM (PIP5K2A): 96.4%
Compound: CS(=O)(=O)Nc1ccccc1Nc1nc(Nc2cccc(OCCN)c2)ncc1Cl [CZC31326, N-(2-(2-(3-(2-aminoethoxy)phenylamino)-5-chloropyrimidin-4-ylamino)phenyl)methanesulfonamide]

Source: patent US20120270237A9, “METHODS FOR THE IDENTIFICATION OF KINASE INTERACTING MOLECULES AND FOR THE PURIFICATION OF KINASE PROTEINS” (Cellzone AG, priority 2009, published 2012)
